One data set concerns FOXO3. Put plainly: FOXO3 siRNA knockdown: dependency for H2O2-resistance. It is filed as cell-based, human.
Data set [1] concerns PC12 cells expressing poly(Q)103-Htt-EGFP. Briefly: Poly(Q) toxicity & viability analysis (cellular model of Huntington's disease). In kind it is cell-based, rat. To be noted: for M = Huntington's poly-Q toxicity attenuation: score; for K = Huntington's poly-Q toxicity attenuation: summary score. The essentials:
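PC12 cells stably carrying inducible poly(Q)103-Htt-EGFP, whose induced expression causes aggregation and toxicity. Viability read 48 hrs later as ATP content by CellTiter-Glo.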

The next data set deals with C. elegans. Put plainly: C. elegans lifespan assays (liquid and plate). In kind it is in vivo, Caenorhabditis elegans. To be noted: for ILS at 60 µM / ILS at 66 µM: Caenorhabditis elegans.
Data set [2] has as its system phosphorylated γH2A.X and TP53BP1. Put plainly: DNA damage marker analysis (immuno-staining). To be noted: for activity at 10 µM: Homo sapiens, WI-38, 24 h. The method, boiled down: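 WI-38 cells were cultured 24 h, then treated with compounds for 24 h; H2O2 (700 μM, 3 h) and doxorubicin (300 nM, 24 h) served as DNA-damage controls. After fixation, cells were immunostained for phospho-γH2A.X (Ser-139) and phospho-TP53BP1 (Ser-1778), counterstained with DAPI, and imaged by automated high-content microscopy.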

Where [3] appears, read: 60 μM, in liquid, wild type, with FuDR, 1.0 × 10^9 bacteria/ml, read-out: relative change of mean lifespan vs control, Trial 1.
[4] abbreviates: 60 μM, in liquid, wild type, with FuDR, 2.5 × 10^9 bacteria/ml, read-out: relative change of mean lifespan vs control, Trial 2.
Setting [5] is: 60 μM, on plate, CF512 temperature-sensitive sterile animals, without FuDR, 2.0 × 10^10 bacteria/ml, read-out: relative change of mean lifespan vs control, Trial 3.
[6] abbreviates: Assay 2(z), at 66 uM, 1.0 × 10^9 bacteria/ml, wild type + FuDR (2012 July), read-out: Lifespan assay in liquid.
Where [7] appears, read: Assay 3(aa), at 66 uM, 2.5 × 10^9 bacteria/ml, wild type + FuDR, read-out: Lifespan assay in liquid.
[8] abbreviates: Assay 4(ab), at 66 uM, 2.0 × 10^10 bacteria/ml, CF512 worms, no FuDR, read-out: Lifespan assay on plates.
[9] abbreviates: score scale 0 to 2, 4 to 6 independent trials.
[10] abbreviates: read-out: Experiment 1, H2A.X-P DNA damage foci staining (no H2O2 stress treatment), at 10 uM.
[11] abbreviates: read-out: Experiment 2, H2A.X-P DNA damage foci staining (no H2O2 stress treatment), at 10 uM.
[12] abbreviates: read-out: Experiment 2, H2A.X-P DNA damage foci staining (under H2O2 stress treatment), at 10 uM.
[13] abbreviates: read-out: Experiment 2, TP53BP1-P DNA damage foci staining (no H2O2 stress treatment), at 10 uM.
Setting [14] is: read-out: Experiment 2, TP53BP1-P DNA damage foci staining (under H2O2 stress treatment), at 10 uM.

Molecules are shown by their SMILES. Like-named read-outs stand apart in the source and are kept apart here.

As for `CC(C)(C)c1ccc(OCC(=O)Nc2ccc3c4c(cccc24)C(=O)NC3=O)cc1` [O22], the “I = FOXO3-dependency for H2O2-resistance” value in the data set on FOXO3 (score) and with FOXO3 (summary score) was 0 throughout. Also, in data set [1], the “M = Huntington's poly-Q toxicity attenuation” value worked out at 0. Besides, the “K = Huntington's poly-Q toxicity attenuation” value in data set [1] amounted to 0. The ILS at 60 µM in the data set with C. elegans (setting [3]) was -24.5%; with C. elegans (setting [4]), -2.3%; in the data set on C. elegans (setting [5]), -52.8%. Moreover, the figures for the ILS at 66 µM in the data set with C. elegans (setting [6]), with C. elegans (setting [7]) and with C. elegans (setting [8]) were -24.5%, -2.3% and -52.8%, respectively. For the same compound, in the data set on C. elegans (setting [9]), the “O = Life span- extending scores in worms” value turned out to be 0. The “M = Lifespan-extending scores in worms” value in the data set on C. elegans (summary score) was found to be 0. Besides, the activity at 10 µM in data set [2] (setting [10]) came to 101%; in data set [2] (setting [11]), 121%; in data set [2] (setting [12]), 210%; in data set [2] (setting [13]) it was 154%; in data set [2] (setting [14]), 510%. Besides, the “P = Potential DNA-damaging” value in data set [2] (human, 24 h) stood at 0. The “R = Potential DNA damaging” value in data set [2] (human, 24 h) was found to be 0.

For `COc1cccc(/C=C2\CN(C)C/C(=C\c3cccc(OC)c3OC)C2=O)c1OC` [O23], in the data set with FOXO3 (10 uM, experiment 3, with & without H2O2), the “FOXO3-dependency for H2O2-resistance, at 10 uM (experiment 3) - with & without H2O2” value is on record as “YES”. The “FOXO3-dependency for H2O2-resistance (experiment 3)” value in the data set with FOXO3 (10 uM, with & without H2O2, FOXO3 knockdown in WI-38 cells, YES = resistance reduced by at least 50%, partial = 25% to 50%) is reported as “YES”. In addition, the “I = FOXO3-dependency for H2O2-resistance” value in the data set with FOXO3 (score) and in the data set with FOXO3 (summary score) was 0 throughout. Further, in data set [1], the “M = Huntington's poly-Q toxicity attenuation” value is 0. Besides, the “K = Huntington's poly-Q toxicity attenuation” value in data set [1] is 0. Besides, the ILS at 60 µM in the data set with C. elegans (setting [3]) was 36.2%; in the data set with C. elegans (setting [4]), 17.4%; in the data set on C. elegans (60 μM, on plate, CF512 temperature-sensitive sterile animals, without FuDR, 1.0 × 10^11 bacteria/ml, read-out: relative change of mean lifespan vs control, Trial 4), -0.3%; in the data set with C. elegans (setting [5]), 21.6%. The ILS at 66 µM with C. elegans (setting [6]) is 36.2%; in the data set with C. elegans (setting [7]) it was 17.4%; in the data set on C. elegans (setting [8]) it was 21.6%; in the data set on C. elegans (Assay 5(ac), at 66 uM, 1.0 × 10^11 bacteria/ml, CF512 worms, no FuDR, read-out: Lifespan assay on plates), -0.3%. Besides, the “Extension of C. elegans' lifespan (qualitative)” value in the data set with C. elegans (in at least 3 to 4 trials, group range ~10% to ~50%) is “could extend animal's lifespan”. The “Trials with lifespan extension” value with C. elegans (positive of total trials) is listed as 3 of 4. Besides, the “O = Life span- extending scores in worms” value in the data set on C. elegans (setting [9]) is 2 (2 for observed in more than 2 trials). Moreover, the “M = Lifespan-extending scores in worms” value with C. elegans (summary score) is on record as 2 (2 for observed in more than 2 trials). The activity at 10 µM was determined as 79.9% in data set [2] (setting [10]); 326% in data set [2] (setting [11]); 33.4% in data set [2] (setting [12]); 42.4% in data set [2] (setting [13]); 13.2% in data set [2] (setting [14]). Moreover, the “P = Potential DNA-damaging” value in data set [2] (human, 24 h) turned out to be 0. Also, in data set [2] (human, 24 h), the “R = Potential DNA damaging” value is listed as 0.

Consider `Oc1ccccc1-c1noc(-c2ccccc2O)n1` [O27], for which the “I = FOXO3-dependency for H2O2-resistance” value in the data set on FOXO3 (score) and in the data set on FOXO3 (summary score) was 0 each time. For the same compound, in data set [1], the “M = Huntington's poly-Q toxicity attenuation” value stood at 0. Further, the “K = Huntington's poly-Q toxicity attenuation” value in data set [1] came out at 0. The ILS at 66 µM with C. elegans (read-out: Lifespan assay on plates) is -69.3%. For the same compound, the ILS at 60 µM in the data set with C. elegans (read-out: relative change of mean lifespan vs control, Trial 1) is -35.1%; with C. elegans (read-out: relative change of mean lifespan vs control, Trial 2), -17.8%; in the data set on C. elegans (read-out: relative change of mean lifespan vs control, Trial 3) it was -69.3%. The “M = Lifespan-extending scores in worms” value in the data set with C. elegans (in vivo) amounted to 0. In the data set on C. elegans (in vivo), the “O = Life span- extending scores in worms” value worked out at 0. Moreover, the activity at 10 µM in data set [2] (setting [10]) stood at 122%; in data set [2] (setting [11]), 338%; in data set [2] (setting [12]), 26.1%; in data set [2] (setting [13]), 241%; in data set [2] (setting [14]), 379%. Also, the “R = Potential DNA damaging” value in data set [2] (negative point, cultured human cells) was determined as 1. Further, the “P = Potential DNA-damaging” value in data set [2] (summary score) is 1.

These data come from patent US11413278B2, “Compounds and methods for promoting stress resistance” (priority 2015, dated 2022).
